Source: PubChem BioAssay AID2060898 (Molecular Pharmacology Branch, DTP, NCI, 2025)

System: 616215-338-R-J1-PDC complex spheroid viability
Assay: Anticancer human tumor 616215-338-R-J1-PDC patient-derived colon adenocarcinoma cell line growth inhibition [RAS]
Details: for viability, T/C: stronger effect = lower value
Description: RAS pathway inhibitors in Combinations in Complex Spheroids
A high-throughput screen of multi-cell type tumor spheroids was designed to identify active combinations of RAS pathway inhibitors and targeted small molecules. Complex spheroids include a stromal component modeled by human endothelial cells (HUVEC) and fibroblasts modeled by human mesenchymal stem cells (MSCs). The concentration ranges selected for each drug and investigational agent were based upon clinically achievable concentrations if the clinical Cmax of the agent was known.
Compounds. The drugs and investigational agents: abemaciclib (NSC768073), cobimetinib (NSC768068), divarasib (GDC6063, NSC841802), docetaxel (NSC628503), GDC-1971 (RLY-1971, NSC841576), gemcitabine (NSC613327), inavolisib (NSC800729), ipatasertib (NSC767898), KB-0742 (NSC834161), MRTX-1133 (NSC836407), osimertinib (NSC779217), RMC-4630 (NSC839698), RMC-6236 (NSC851965), RMC-6291 (NSC852671), Ro-3306 (NSC812927), sapanisertib (NSC764658), SN-38 (NSC673596), staurosporine (NSC755774), SY5609 (NSC837396), and tovorafenib (DAY101, NSC766906), were obtained from the National Cancer Institute (NCI) Developmental Therapeutics Program Chemical Repository. The FDA-approved anticancer drug set is available from the NCI Developmental Therapeutics Program. […] The stock solutions were prepared in dimethyl sulfoxide (DMSO, Sigma-Aldrich, St. Louis, MO, cat. D2650) at 800-fold the tested concentration and stored at -70 degrees C prior to their use. All drugs and investigational agents were tested over a range starting from a high concentration at or near the clinical Cmax and decreasing in half-log increments. If the clinical Cmax for an agent had not been determined, the highest concentration tested was 10 microM.
Cell Culture. All cells were maintained in an incubator at 37 degrees C and 5% CO2 with 95% humidity. The PDC lines were cultured according to standard operating procedures established by the NCI PDMR. All PDCs were thawed and cultured in Matrigel-coated flasks prepared with a working solution of 1X Ham's F-12 nutrient mix, without supplementation (Invitrogen, Waltham, MA, cat. 11765054), 100 U/mL penicillin-streptomycin (Invitrogen, cat. 15140122), and 2.5% Matrigel (Corning Inc., Corning, NY, cat. 354248) for the first three passages. The 362531-283-R-J2-PDC and 782815-120-R-J1-PDC lines were cultured in 6C/Colon 1B media, which includes advanced DMEM/F-12 (Thermo Fisher Scientific, cat. 12634028), 10 mM HEPES (Thermo Fisher Scientific, cat. 15630080), 1X GlutaMAX supplement (Thermo Fisher Scientific, cat. 35050061), 0.1 mg/mL primocin (InvivoGen, San Diego, CA, cat. ant-pm-2), 10% defined fetal bovine serum, heat inactivated (HyClone Laboratories Inc., Logan, UT, cat. SH30070.03HI), 50% L-WRN conditioned media (ATCC, cat. CRL-3276), 1.25 mM N-Acetyl-L-cysteine (Sigma-Aldrich, cat. A9165), 10 mM nicotinamide (Sigma-Aldrich, cat. N0636), 1X B-27 supplement (Thermo Fisher Scientific, cat. 17504044), 1X N-2 supplement (Thermo Fisher Scientific, cat. 17502048), 50 ng/mL human EGF (Thermo Fisher Scientific, cat. PHG0311), and 10 microM Y-27632 dihydrochloride (Tocris Bioscience, cat. 1254). The K12877-001-R-J1-PDC line was cultured in 6I media, which includes all 6C/Colon 1B media plus 10 ng/mL human FGF-10 (PeproTech, cat. 100-26), 1 ng/mL human FGF-2 (PeproTech, cat. 100-18B), 1 µM prostaglandin E2 (Tocris Bioscience, cat. 2296), […] hydrocortisone (Sigma-Aldrich, cat. H4001), and […] bovine insulin (Sigma-Aldrich, cat. I6634). The K86415-001-R-J1-PDC line was cultured in 6D media, which includes all 6C/Colon 1B media components minus the L-WRN conditioned media. The 485176-168-R4-J1-PDC was cultured in PANC media, which includes all 6C/Colon 1B media plus 100 ng/mL human FGF-10 (PeproTech, cat. 100-26), 500 nM SB-431542 (Selleckchem, cat. S1067), and 10 nM gastrin (Tocris Bioscience, cat. 3006). […]

[1] = curve of first compound, second compound 0.0316 µM
[2] = curve of first compound, second compound 0.1 µM
[3] = curve of first compound, second compound 0.316 µM
[4] = curve of first compound, second compound 1 µM
[5] = curve of first compound, second compound 3.16 µM
[6] = curve of first compound, second compound 10 µM
[7] = second compound 0.0316 µM, first compound 0.0316 µM
[8] = second compound 0.0316 µM, first compound 0.1 µM
[9] = second compound 0.1 µM, first compound 0.0316 µM
[10] = second compound 0.1 µM, first compound 0.1 µM
[11] = second compound 0.316 µM, first compound 0.0316 µM
[12] = second compound 0.316 µM, first compound 0.1 µM
[13] = second compound 1 µM, first compound 0.0316 µM
[14] = second compound 1 µM, first compound 0.1 µM
[15] = second compound 3.16 µM, first compound 0.0316 µM
[16] = second compound 3.16 µM, first compound 0.1 µM
[17] = second compound 10 µM, first compound 0.0316 µM
[18] = second compound 10 µM, first compound 0.1 µM
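Further: spheroids exposed to agents for seven days before viability readout.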
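Wherever viability, T/C is given: 100% = DMSO vehicle control viability.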

In the case of `CC(=O)OC12COC1CC(O)C1(C)C(=O)C(O)C3=C(C)C(OC(=O)C(O)C(NC(=O)OC(C)(C)C)c4ccccc4)CC(O)(C(OC(=O)c4ccccc4)C21)C3(C)C` (stereo unspecified) + C#Cc1c(F)ccc2cc(O)cc(-c3ncc4c(N5CC6CCC(C5)N6)nc(OCC56CCCN5CC(F)C6)nc4c3F)c12, the IC50 [1] is reported as less than 31.6 nM, the IC50 [2] is reported as less than 31.6 nM and the IC50 [3] is reported as less than 31.6 nM. It also gave an IC50 [4] of less than 31.6 nM, an IC50 [5] of less than 31.6 nM and an IC50 [6] of less than 31.6 nM. It also gave a viability, T/C [7] of 26.7%, a viability, T/C [8] of 23.1% and a viability, T/C (second compound 0.0316 µM, first compound 0.316 µM) of 18.6%. The viability, T/C (second compound 0.0316 µM, first compound 1 µM) was 18.8%, the viability, T/C (second compound 0.0316 µM, first compound 3.16 µM) was 22.8% and the viability, T/C (second compound 0.0316 µM, first compound 10 µM) was 23%. For the same compound, the viability, T/C [9] was 26.2%, the viability, T/C [10] was 23.6% and the viability, T/C (second compound 0.1 µM, first compound 0.316 µM) was 17.9%. For the same compound, the viability, T/C (second compound 0.1 µM, first compound 1 µM) was 18%, the viability, T/C (second compound 0.1 µM, first compound 3.16 µM) was 25.9% and the viability, T/C (second compound 0.1 µM, first compound 10 µM) was 23.3%. It also gave a viability, T/C [11] of 29.3%, a viability, T/C [12] of 21.3% and a viability, T/C (second compound 0.316 µM, first compound 0.316 µM) of 18%. It also gave a viability, T/C (second compound 0.316 µM, first compound 1 µM) of 18.1%, a viability, T/C (second compound 0.316 µM, first compound 3.16 µM) of 22.4% and a viability, T/C (second compound 0.316 µM, first compound 10 µM) of 22.1%. For the same compound, the viability, T/C [13] was 23%, the viability, T/C [14] was 19.6% and the viability, T/C (second compound 1 µM, first compound 0.316 µM) was 20.9%. It also gave a viability, T/C (second compound 1 µM, first compound 1 µM) of 17.1%, a viability, T/C (second compound 1 µM, first compound 3.16 µM) of 19.1% and a viability, T/C (second compound 1 µM, first compound 10 µM) of 19.4%. It also gave a viability, T/C [15] of 20.7%, a viability, T/C [16] of 17.4% and a viability, T/C (second compound 3.16 µM, first compound 0.316 µM) of 15.9%. The viability, T/C (second compound 3.16 µM, first compound 1 µM) was 15.1%, the viability, T/C (second compound 3.16 µM, first compound 3.16 µM) was 17.9% and the viability, T/C (second compound 3.16 µM, first compound 10 µM) was 23.4%. The viability, T/C [17] was 14.5%, the viability, T/C [18] was 14.9% and the viability, T/C (second compound 10 µM, first compound 0.316 µM) was 16.1%. For the same compound, the viability, T/C (second compound 10 µM, first compound 1 µM) was 13%, the viability, T/C (second compound 10 µM, first compound 3.16 µM) was 17.5% and the viability, T/C (second compound 10 µM, first compound 10 µM) was 12.3%.
Work on `CC(C)n1nc(-c2ccc3oc(N)nc3c2)c2c(N)ncnc21` + C#Cc1c(F)ccc2cc(O)cc(-c3ncc4c(N5CC6CCC(C5)N6)nc(OCC56CCCN5CC(F)C6)nc4c3F)c12 yielded an IC50 [1] greater than 100 nM, an IC50 [2] greater than 100 nM and an IC50 [3] greater than 100 nM. The IC50 [4] was greater than 100 nM, the IC50 [5] was 59.9 nM and the IC50 [6] was 13.9 nM. For the same compound, the viability, T/C (second compound 0.0316 µM, first compound 0.000316 µM) was 113%, the viability, T/C (second compound 0.0316 µM, first compound 0.001 µM) was 119% and the viability, T/C (second compound 0.0316 µM, first compound 0.00316 µM) was 112%. For the same compound, the viability, T/C (second compound 0.0316 µM, first compound 0.01 µM) was 114%, the viability, T/C [7] was 104% and the viability, T/C [8] was 57.1%. The viability, T/C (second compound 0.1 µM, first compound 0.000316 µM) was 116%, the viability, T/C (second compound 0.1 µM, first compound 0.001 µM) was 107% and the viability, T/C (second compound 0.1 µM, first compound 0.00316 µM) was 113%. It also gave a viability, T/C (second compound 0.1 µM, first compound 0.01 µM) of 106%, a viability, T/C [9] of 107% and a viability, T/C [10] of 58%. It also gave a viability, T/C (second compound 0.316 µM, first compound 0.000316 µM) of 116%, a viability, T/C (second compound 0.316 µM, first compound 0.001 µM) of 111% and a viability, T/C (second compound 0.316 µM, first compound 0.00316 µM) of 112%. It also gave a viability, T/C (second compound 0.316 µM, first compound 0.01 µM) of 112%, a viability, T/C [11] of 99.9% and a viability, T/C [12] of 54.9%. The viability, T/C (second compound 1 µM, first compound 0.000316 µM) was 118%, the viability, T/C (second compound 1 µM, first compound 0.001 µM) was 111% and the viability, T/C (second compound 1 µM, first compound 0.00316 µM) was 121%. For the same compound, the viability, T/C (second compound 1 µM, first compound 0.01 µM) was 116%, the viability, T/C [13] was 111% and the viability, T/C [14] was 54.2%. For the same compound, the viability, T/C (second compound 3.16 µM, first compound 0.000316 µM) was 86.8%, the viability, T/C (second compound 3.16 µM, first compound 0.001 µM) was 105% and the viability, T/C (second compound 3.16 µM, first compound 0.00316 µM) was 98.3%. The viability, T/C (second compound 3.16 µM, first compound 0.01 µM) was 77.9%, the viability, T/C [15] was 67.9% and the viability, T/C [16] was 37.2%. For the same compound, the viability, T/C (second compound 10 µM, first compound 0.000316 µM) was 76.8%, the viability, T/C (second compound 10 µM, first compound 0.001 µM) was 64.2% and the viability, T/C (second compound 10 µM, first compound 0.00316 µM) was 68.2%. It also gave a viability, T/C (second compound 10 µM, first compound 0.01 µM) of 49.2%, a viability, T/C [17] of 44.2% and a viability, T/C [18] of 27.9%.
In the case of `CC(Nc1ccc2c(c1)OCCn1cc(N3C(=O)OCC3C(F)F)nc1-2)C(N)=O` (stereo unspecified), the viability, T/C (compound 0.0316 µM) is reported as 111% [middle of 4 runs], the viability, T/C (compound 0.1 µM) is reported as 108% [middle of 4 runs] and the viability, T/C (compound 0.316 µM) is reported as 110% [middle of 4 runs]. For the same compound, the viability, T/C (compound 1 µM) was 107% [middle of 4 runs], the viability, T/C (compound 3.16 µM) was 102% [middle of 4 runs] and the viability, T/C (compound 10 µM) was 83.5% [middle of 4 runs]. For the same compound, the IC50 (curve of compound) was greater than 10000 nM.
